# According to patent US20230066946A1, “1,5-DIPHENYLPYRAZOLYL-3-OXYALKYL ACIDS AND 1-PHENYL-5-THIENYLPYRAZOLYL-3-OXYALKYL ACIDS AND THE USE THEREOF FOR CONTROL OF UNWANTED PLANT GROWTH” (Bayer Aktiengesellschaft, priority 2019, published 2023):
# Columns and labels:
# ECHCG [1] = assay: Pre-emergence herbicidal action against ECHCG; format: in vivo, Echinochloa crus-galli; settings: scored visually after about 3 weeks vs untreated controls, 100% = plants have died, 0% = like control plants
# From the text: (§1) Seeds of mono- and dicotyledonous weed plants are placed in plastic pots in sandy loam soil (doubly sown with one species each of mono- or dicotyledonous weed plants per pot) and covered with soil. The compounds of the invention, formulated in the form of wettable powders (WP) or as emulsion concentrates (EC), are then applied onto the surface of the covering soil as aqueous suspension or emulsion with addition of 0.5% additive at a water application rate equivalent to 600 litres per hectare. After the treatment, the pots are placed in a greenhouse and kept under good growth conditions for the trial plants. After about 3 weeks, the effect of the preparations is scored visually in comparison with untreated controls as percentages. For example, 100% activity=the plants have died, 0% activity=like control plants. [table] Tables 4.1-4.15 below show the effects of selected compounds of the general formula (I) according to Tables 1 to 3 on various harmful plants at an application rate corresponding to 1280 or 320 g/ha, which have been obtained by the aforementioned experimental method.
# SETVI [2] = assay: Pre-emergence herbicidal action against SETVI; format: in vivo, Setaria viridis; settings: 1280 g/ha, scored visually after about 3 weeks vs untreated controls
# From the text: as §1
# AMARE [3] = assay: Pre-emergence herbicidal action against AMARE; format: in vivo, Amaranthus retroflexus; settings: 1280 g/ha, scored visually after about 3 weeks vs untreated controls
# From the text: as §1
# STEME [4] = assay: Pre-emergence herbicidal action against STEME; format: in vivo, Stellaria media; settings: 1280 g/ha, scored visually after about 3 weeks vs untreated controls
# From the text: as §1
# AMARE [5] = assay: Post-emergence herbicidal action against AMARE; format: in vivo, Amaranthus retroflexus; settings: 1280 g/ha, visual rating about 3 weeks after treatment
# Protocol: (§2) [table] Seeds of mono- and dicotyledonous weed plants are placed in plastic pots in sandy loam soil (twin sowing with one species each of mono- or dicotyledonous weed plants per pot), covered with soil and cultivated in a greenhouse under controlled growth conditions. 2 to 3 weeks after sowing, the test plants are treated at the one-leaf stage. The compounds of the invention, formulated in the form of wettable powders (WP) or as emulsion concentrates (EC), are applied to the green parts of the plants as aqueous suspension or emulsion with addition of 0.5% additive at a water application rate equivalent to 600 litres per hectare. After the test plants have been kept in the greenhouse under optimum growth conditions for about 3 weeks, the activity of the preparations is rated visually in comparison to untreated controls. For example, 100% activity=the plants have died, 0% activity=like control plants. Tables 5.1-5.16 below show the effects of selected compounds of the general formula (I) according to Tables 1 to 3 on various harmful plants at an application rate corresponding to 1280 or 320 g/ha, which have been obtained by the aforementioned experimental method.
# MATIN = assay: Post-emergence herbicidal action against MATIN; format: in vivo, Matricaria inodora; settings: 1280 g/ha, visual rating about 3 weeks after treatment
# Protocol: as §2
# STEME [6] = assay: Post-emergence herbicidal action against STEME; format: in vivo, Stellaria media; settings: 1280 g/ha, visual rating about 3 weeks after treatment
# Protocol: as §2
# SETVI [7] = assay: Post-emergence herbicidal action against SETVI; format: in vivo, Setaria viridis; settings: 1280 g/ha, post-emergence at one-leaf stage, rated visually after about 3 weeks vs untreated controls
# Protocol: as §2
# ECHCG [8] = assay: Post-emergence herbicidal action against ECHCG; format: in vivo, Echinochloa crus-galli; settings: 1280 g/ha, post-emergence at one-leaf stage, rated visually after about 3 weeks vs untreated controls
# Protocol: as §2
SMILES,Pre-emergence action at 1280 g/ha against ECHCG in % (ECHCG [1]) [%],Pre-emergence action against SETVI in % (SETVI [2]) [%],Pre-emergence action against AMARE in % (AMARE [3]) [%],Pre-emergence action against STEME in % (STEME [4]) [%],Post-emergence action against AMARE in % (AMARE [5]) [%],Post-emergence action against MATIN in % (MATIN) [%],Post-emergence action against STEME in % (STEME [6]) [%],Post-emergence action against SETVI in % (SETVI [7]) [%],Post-emergence action against ECHCG in % (ECHCG [8]) [%]
CCOC(=O)COc1nn(-c2ccc(F)cc2)c(-c2ccc(F)cc2)c1Br [I-076],90,100,100,100,100,90,,,
CCOC(=O)COc1nn(-c2ccccc2)c(-c2ccc(F)cc2F)c1Br [I-085],100,100,100,,100,90,100,,
CCOC(=O)COc1nn(-c2ccccc2OC)c(-c2ccc(F)cc2)c1Br [I-089],,,,,100,,,100,
O=C(COc1nn(-c2ccccc2)c(-c2ccc(F)cc2)c1Br)OCc1cccc(F)c1 [I-111],100,90,,100,100,90,90,,
COC(=O)COc1nn(-c2cccc(F)c2)c(-c2ccccc2)c1Br [I-114],90,100,100,100,100,90,,,
O=C(O)COc1nn(-c2ccc(F)cc2)c(-c2cccc(F)c2)c1Br [I-119],,100,100,100,100,90,90,,
COC(=O)COc1nn(-c2cccc(F)c2)c(-c2ccccc2)c1[N+](=O)[O-] [I-122],100,,100,,,,,,
O=C(COc1nn(-c2ccc(F)cc2)c(-c2cccc(F)c2)c1Br)OCc1cccc(F)c1 [I-123],,90,100,100,90,90,,,90
CCOC(=O)COc1nn(-c2ccccc2F)c(-c2ccc(F)c(F)c2)c1Cl [I-131],100,100,100,,,90,90,,
CCOC(=O)COc1nn(-c2ccccc2F)c(-c2ccc(F)c(F)c2)c1Br [I-133],90,100,100,100,90,90,100,,
CCOC(=O)COc1nn(-c2c(F)cccc2F)c(-c2ccc(F)c(F)c2)c1Br [I-134],100,100,100,100,90,,100,,
CC(C)(Oc1nn(-c2ccccc2)c(-c2ccc(F)cc2)c1Br)C(=O)O [I-140],90,100,90,100,,,100,,
CCOC(=O)COc1nn(-c2c(F)cccc2F)c(-c2ccc(F)c(F)c2)c1Cl [I-142],100,100,100,100,,90,100,,
COC(=O)C(C)Oc1nn(-c2ccccc2)c(-c2ccc(F)cc2)c1Cl (stereo not drawn) [I-145],100,100,90,100,,90,100,90,
CC(Oc1nn(-c2ccccc2F)c(-c2ccc(F)c(F)c2)c1Br)C(=O)O (stereo not drawn) [I-168],90,,100,100,,90,100,,
C=C(C)CNC(=O)COc1nn(-c2ccccc2F)c(-c2ccccc2)c1Br [III-001],90,100,,100,100,,,100,
O=C(COc1nn(-c2ccccc2)c(-c2ccc(F)cc2)c1Br)NCC1CC1 [III-005],100,100,90,100,,,,,
C#CCNC(=O)COc1nn(-c2ccc(F)cc2)c(-c2cccc(F)c2)c1Br [III-016],100,100,100,100,90,,,,
C#CCNC(=O)COc1nn(-c2ccc(F)cc2)c(-c2cccc(F)c2)c1Cl [III-023],90,100,90,100,,,,100,
O=C(COc1nn(-c2ccc(F)cc2)c(-c2cccc(F)c2)c1Cl)NC1CC1 [III-024],90,100,100,100,,,,,
COC(=O)CCNC(=O)COc1nn(-c2ccc(F)cc2)c(-c2cccc(F)c2)c1Cl [III-026],,90,90,,90,90,,100,
CCOC(=O)CCNC(=O)COc1nn(-c2cccc(F)c2)c(-c2ccccc2)c1Br [III-033],90,100,90,100,90,,,100,
C=CCNC(=O)COc1nn(-c2c(F)cccc2F)c(-c2ccc(F)c(F)c2)c1Br [III-054],,90,90,,,,,100,
C=CCNC(=O)COc1nn(-c2ccccc2F)c(-c2ccc(F)c(F)c2)c1[N+](=O)[O-] [III-066],,90,90,90,,,,100,
C=CCNC(=O)COc1nn(-c2ccccc2F)c(-c2ccc(F)c(F)c2)c1Cl [III-067],100,100,100,90,,90,100,100,
C=CCNC(=O)COc1nn(-c2c(F)cccc2F)c(-c2ccc(F)c(F)c2)c1Cl [III-068],100,100,90,90,,90,,90,
